Measured values reported in patent US6465647B1, “Oxygen, sulfur and nitrogen substituted cyclohexene and cyclohexane derivatives having retinoid-like biological activity” (Allergan, Inc., priority 1999, dated 2002).

Test system: ornithine decarboxylase (ODC)
Assay: Ornithine decarboxylase (ODC) assay: inhibition of TPA induction of ODC activity
Type: biochemical
Details: concentration of the test compound which causes 60% inhibition in the ODC assay (TPA-induced ODC activity)
From the text: A classic measure of retinoic acid activity involves measuring the effects of retinoic acid on ornithine decarboxylase. The original work on the correlation between retinoic acid and a decrease in cell proliferation was done by Verma & Boutwell, Cancer Research, 1977, 37, 2196-2201. That reference discloses that ornithine decarboxylase (ODC) activity increased precedent to polyamine biosynthesis. It has been established elsewhere that increases in polyamine synthesis can be correlated or associated with cellular proliferation. Thus, if ODC activity could be inhibited, cell hyperproliferation could be modulated. Although all cases for ODC activity increases are unknown, it is known that 12-0-tetradecanoylphorbol-13-acetate (TPA) induces ODC activity. Retinoic acid inhibits this induction of ODC activity by TPA. […] “IC60” is that concentration of the test compound which causes 60% inhibition in the ODC assay. By analogy, “IC80”, for example, is that concentration of the test compound which causes 80% inhibition in the ODC assay.
Table 1 discloses the activity of certain exemplary compounds of the invention in the above-described oinithine decarboxylase (ODC) assay.

Row | Structure (SMILES) | IC60 [nM] | IC60 (listed as Sa) [nM]
1 | CCOC(=O)c1ccc(C#C/C=C/C2=C(C)CCCC2OC(=O)C(C)(C)C)cc1 (single isomer, unassigned) [Compound 6b, Ethyl (+)-(E)-4-(4-(6-(2,2-Dimethylpropanoyl)oxy-2-methylcyclohex-1-enyl)but-3-ene-1-ynyl)benzoate] | 124 | –
2 | CCOC(=O)c1ccc(C#C/C=C/C2=C(C)CCCC2OC(C)=O)cc1 (single isomer, unassigned) [Compound 3b, Ethyl (+)-(E)-4-(4-(6-Acetyloxy-2-methylcyclohex-1-enyl)but3-en-1-ynyl)benzoate] | 4.3 | –
3 | CCOC(=O)c1ccc(C#C/C=C/C2=C(C)CCCC2OC(=O)c2ccccc2)cc1 (stereo not drawn) [Compound 7a, Ethyl (−)-(E)-4-(4-(6-Benzoyloxy-2-methylcyclohex-1-enyl)but-3-ene-1-ynyl)benzoate] | 8.6 | –
4 | CCOC(=O)c1ccc(C#C/C=C/C2=C(C)CCCC2OC(C)=O)cc1 (single isomer, unassigned) [Compound 3a, Ethyl (−)-(E)-4-(4-(6-Acetyloxy-2-methylcyclohex-1-enyl)but-3-en-1-ynyl)benzoate] | 0.52 | –
5 | CCOC(=O)c1ccc(C#C/C=C/C2=C(C)CCCC2OC(=O)C(C)C)cc1 (stereo not drawn) [Compound 5b, Ethyl (+)-(E)-4-(4-(6-iso-Butyryloxy-2-methyicyclohex-1-enyl)but-3-ene-1-ynyl)benzoate] | 234 | –
6 | CCOC(=O)C=C1CCCC(C)=C1C=CC#Cc1ccc(C(=O)OCC)cc1 [Compound 12, Ethyl 4-(4-(6-Ethoxycarbonylmethylene-2-methylcyclohex-1-enyl)but-3-en-1-ynyl)benzoate] | 7.8 | –
7 | CCOC(=O)c1ccc(C#C/C=C/C2=C(C)CCCC2OC(=O)C(C)(C)C)cc1 (single isomer, unassigned) [Compound 6a, Ethyl (−)-(E)-4-(4-(6-(2,2-Dimethylpropanoyl)oxy-2-methylcyclohex-1-enyl)but-3-ene-1-ynyl)benzoate] | 5.1 | –
8 | CCOC(=O)c1ccc(C#CC=CC2=C(C)CCCC2=NOC)cc1 [Compound 10] | 2.4 | –
9 | CCOC(=O)c1ccc(C#C/C=C/C2=C(C)CCCC2OC(=O)C(C)C)cc1 (stereo not drawn) [Compound 5a, Ethyl (−)-(E)-4-(4-(6-iso-Butyryloxy-2-methylcyclohex-1-enyl)but-3-ene-1-ynyl)benzoate] | – | 15.7
10 | CCOC(=O)c1ccc(C#CC=CC2=C(C)CCCC2=NOCc2ccccc2)cc1 [Compound 11] | 10.3 | –
11 | CCOC(=O)c1ccc(C#C/C=C/C2=C(C)CCCC2OC(=O)CC)cc1 (stereo not drawn) [Compound 4a, Ethyl (−)-(E)-4-(4-(6-Propionyloxy-2-methylcyclohex-1-enyl)but-3-en-1-ynyl)benzoate] | 20.9 | –
